# Laboratory results from the supplement of paper PMC12463676, “Small-molecule dissolution of stress granules by redox modulation benefits ALS models” (Nature Chemical Biology, 2025).
# Compound: O=[As]([O-])(O)O.[K+] [potassium arsenate]
# Test: thermal stability z-score vs DMSO; higher = more thermally stabilized by treatment
# Conditions: HeLa; arsenate concentration 1 mM
# Procedure: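 Cellular thermal proteome profiling in HeLa cells treated with 1 mM arsenate for 1 h (DMSO pretreatment), heated to ten temperatures (37-66.3 °C). Soluble protein was quantified by TMT mass spectrometry relative to DMSO controls; the thermal stability score was transformed to a z-score; mean of n = 3 experiments.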
# 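Also: each temperature applied for 3 min, abundance score taken as mean log2 fold change at the two lowest temperatures, z-score obtained by mean subtraction and division by SD.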
# UniProt Q15008, sequence (Q15008 whole entry): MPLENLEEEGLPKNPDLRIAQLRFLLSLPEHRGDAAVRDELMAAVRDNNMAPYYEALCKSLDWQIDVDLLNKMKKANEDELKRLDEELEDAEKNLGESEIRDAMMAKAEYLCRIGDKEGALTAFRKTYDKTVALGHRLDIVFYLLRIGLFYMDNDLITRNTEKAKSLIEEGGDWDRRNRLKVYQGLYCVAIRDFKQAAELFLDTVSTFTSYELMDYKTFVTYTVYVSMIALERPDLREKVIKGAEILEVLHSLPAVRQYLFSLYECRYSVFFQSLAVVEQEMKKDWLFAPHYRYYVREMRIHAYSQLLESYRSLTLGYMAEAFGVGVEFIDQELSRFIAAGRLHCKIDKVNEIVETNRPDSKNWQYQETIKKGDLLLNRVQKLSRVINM
# UniProt O15355, sequence (O15355 whole entry): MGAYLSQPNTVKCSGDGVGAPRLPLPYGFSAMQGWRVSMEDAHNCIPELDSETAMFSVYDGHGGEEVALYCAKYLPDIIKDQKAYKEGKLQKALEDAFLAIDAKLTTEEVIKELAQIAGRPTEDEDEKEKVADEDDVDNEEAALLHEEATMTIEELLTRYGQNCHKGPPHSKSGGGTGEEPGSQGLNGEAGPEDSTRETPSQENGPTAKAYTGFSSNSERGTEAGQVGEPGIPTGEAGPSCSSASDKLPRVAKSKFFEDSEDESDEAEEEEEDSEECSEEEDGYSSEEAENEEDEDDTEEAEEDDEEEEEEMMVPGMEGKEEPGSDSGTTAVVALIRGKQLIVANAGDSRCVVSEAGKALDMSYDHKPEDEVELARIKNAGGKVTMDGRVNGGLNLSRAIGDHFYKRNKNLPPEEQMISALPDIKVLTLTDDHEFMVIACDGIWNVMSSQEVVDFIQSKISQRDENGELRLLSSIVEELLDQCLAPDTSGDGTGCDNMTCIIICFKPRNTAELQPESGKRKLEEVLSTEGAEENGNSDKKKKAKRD
# UniProt Q99595, sequence (Q99595 whole entry): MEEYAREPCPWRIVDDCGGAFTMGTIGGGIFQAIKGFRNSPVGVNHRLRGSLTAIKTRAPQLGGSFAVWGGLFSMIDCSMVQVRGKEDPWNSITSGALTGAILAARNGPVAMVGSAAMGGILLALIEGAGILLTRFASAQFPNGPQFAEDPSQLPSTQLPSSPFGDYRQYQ
# UniProt Q9Y2P8, sequence (Q9Y2P8 whole entry): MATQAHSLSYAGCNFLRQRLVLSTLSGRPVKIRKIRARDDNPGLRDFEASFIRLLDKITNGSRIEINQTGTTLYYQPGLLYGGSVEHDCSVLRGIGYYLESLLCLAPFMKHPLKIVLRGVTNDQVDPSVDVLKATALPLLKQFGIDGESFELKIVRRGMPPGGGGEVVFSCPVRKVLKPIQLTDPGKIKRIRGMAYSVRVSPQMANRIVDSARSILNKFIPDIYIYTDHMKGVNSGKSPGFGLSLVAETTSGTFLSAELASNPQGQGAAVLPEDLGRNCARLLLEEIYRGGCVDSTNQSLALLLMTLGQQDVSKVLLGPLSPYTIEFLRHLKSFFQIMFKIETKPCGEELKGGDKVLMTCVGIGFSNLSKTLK
# UniProt P54105, sequence (P54105 whole entry): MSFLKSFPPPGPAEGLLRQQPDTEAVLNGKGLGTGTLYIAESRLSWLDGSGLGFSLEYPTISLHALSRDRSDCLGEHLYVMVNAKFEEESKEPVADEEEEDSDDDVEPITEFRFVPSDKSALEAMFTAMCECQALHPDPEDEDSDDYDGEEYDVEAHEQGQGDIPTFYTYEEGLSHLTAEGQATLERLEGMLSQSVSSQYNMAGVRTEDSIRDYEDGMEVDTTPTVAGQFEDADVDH
# UniProt Q9Y6D6, sequence (Q9Y6D6 whole entry): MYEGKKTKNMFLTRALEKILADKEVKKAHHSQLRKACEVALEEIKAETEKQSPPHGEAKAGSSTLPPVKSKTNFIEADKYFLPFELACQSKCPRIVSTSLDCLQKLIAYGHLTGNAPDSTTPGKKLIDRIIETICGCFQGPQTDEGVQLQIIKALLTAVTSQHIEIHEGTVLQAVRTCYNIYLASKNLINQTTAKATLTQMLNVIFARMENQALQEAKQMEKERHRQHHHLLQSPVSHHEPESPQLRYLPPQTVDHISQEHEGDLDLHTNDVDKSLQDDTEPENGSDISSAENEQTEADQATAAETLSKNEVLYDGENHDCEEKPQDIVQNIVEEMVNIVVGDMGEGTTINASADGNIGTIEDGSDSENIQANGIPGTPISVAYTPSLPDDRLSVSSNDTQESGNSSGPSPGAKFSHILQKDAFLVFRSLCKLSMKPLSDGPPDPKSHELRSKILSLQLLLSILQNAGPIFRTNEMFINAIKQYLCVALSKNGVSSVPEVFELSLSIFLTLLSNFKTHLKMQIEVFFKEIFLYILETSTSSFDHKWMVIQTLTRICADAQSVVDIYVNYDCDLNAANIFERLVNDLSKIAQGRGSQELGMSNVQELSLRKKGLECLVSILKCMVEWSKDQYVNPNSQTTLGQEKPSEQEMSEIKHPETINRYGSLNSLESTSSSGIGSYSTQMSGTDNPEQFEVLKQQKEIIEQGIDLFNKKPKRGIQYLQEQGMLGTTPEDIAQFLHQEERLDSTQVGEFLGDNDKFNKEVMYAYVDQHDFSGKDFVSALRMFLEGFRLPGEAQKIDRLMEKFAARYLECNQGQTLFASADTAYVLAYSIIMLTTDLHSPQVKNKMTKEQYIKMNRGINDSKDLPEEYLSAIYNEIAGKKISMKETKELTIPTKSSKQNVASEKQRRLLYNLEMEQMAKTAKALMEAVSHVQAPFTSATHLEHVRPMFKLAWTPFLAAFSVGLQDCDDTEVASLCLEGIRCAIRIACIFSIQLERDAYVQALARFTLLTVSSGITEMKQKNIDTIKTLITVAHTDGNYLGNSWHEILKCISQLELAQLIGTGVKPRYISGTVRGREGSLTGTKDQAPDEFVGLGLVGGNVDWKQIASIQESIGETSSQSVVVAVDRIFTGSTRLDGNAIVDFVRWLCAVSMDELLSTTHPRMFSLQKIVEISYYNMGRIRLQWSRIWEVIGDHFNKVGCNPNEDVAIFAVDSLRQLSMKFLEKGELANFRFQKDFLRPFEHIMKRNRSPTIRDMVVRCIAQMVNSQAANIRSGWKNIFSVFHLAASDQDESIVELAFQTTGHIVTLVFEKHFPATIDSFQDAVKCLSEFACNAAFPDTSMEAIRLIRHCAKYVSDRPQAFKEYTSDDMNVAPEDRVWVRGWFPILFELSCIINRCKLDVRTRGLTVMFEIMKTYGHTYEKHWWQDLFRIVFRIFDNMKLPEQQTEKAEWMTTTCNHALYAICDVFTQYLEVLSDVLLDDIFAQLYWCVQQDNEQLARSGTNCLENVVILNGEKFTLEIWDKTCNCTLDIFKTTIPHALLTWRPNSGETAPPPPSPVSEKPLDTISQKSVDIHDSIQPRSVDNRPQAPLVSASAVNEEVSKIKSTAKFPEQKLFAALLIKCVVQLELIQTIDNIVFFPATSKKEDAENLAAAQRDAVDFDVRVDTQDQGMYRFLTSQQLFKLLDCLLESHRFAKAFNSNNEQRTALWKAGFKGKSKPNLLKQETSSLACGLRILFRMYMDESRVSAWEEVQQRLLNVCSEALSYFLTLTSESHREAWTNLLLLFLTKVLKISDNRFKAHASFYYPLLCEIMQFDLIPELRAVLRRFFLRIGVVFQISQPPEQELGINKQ
# UniProt Q9ULW0, sequence (Q9ULW0 whole entry): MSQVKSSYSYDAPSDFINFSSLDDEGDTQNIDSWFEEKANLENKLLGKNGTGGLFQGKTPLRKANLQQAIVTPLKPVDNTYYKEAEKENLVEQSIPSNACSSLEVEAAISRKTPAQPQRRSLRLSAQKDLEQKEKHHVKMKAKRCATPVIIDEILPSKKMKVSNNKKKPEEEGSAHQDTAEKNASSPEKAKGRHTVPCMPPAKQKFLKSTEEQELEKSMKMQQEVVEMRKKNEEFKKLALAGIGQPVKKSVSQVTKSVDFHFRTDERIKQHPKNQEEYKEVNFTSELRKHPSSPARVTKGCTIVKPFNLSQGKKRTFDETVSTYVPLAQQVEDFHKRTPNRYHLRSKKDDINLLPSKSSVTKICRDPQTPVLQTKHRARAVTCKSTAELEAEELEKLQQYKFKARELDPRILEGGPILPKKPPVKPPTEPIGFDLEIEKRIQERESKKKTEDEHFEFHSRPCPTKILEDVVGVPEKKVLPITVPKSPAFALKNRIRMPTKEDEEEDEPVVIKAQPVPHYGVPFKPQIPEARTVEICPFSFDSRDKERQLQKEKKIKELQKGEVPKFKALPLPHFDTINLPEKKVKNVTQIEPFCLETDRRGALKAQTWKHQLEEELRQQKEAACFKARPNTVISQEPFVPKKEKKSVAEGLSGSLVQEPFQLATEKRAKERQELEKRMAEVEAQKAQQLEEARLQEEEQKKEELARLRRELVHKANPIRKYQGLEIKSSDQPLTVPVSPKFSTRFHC
# UniProt P20749, sequence (P20749 whole entry): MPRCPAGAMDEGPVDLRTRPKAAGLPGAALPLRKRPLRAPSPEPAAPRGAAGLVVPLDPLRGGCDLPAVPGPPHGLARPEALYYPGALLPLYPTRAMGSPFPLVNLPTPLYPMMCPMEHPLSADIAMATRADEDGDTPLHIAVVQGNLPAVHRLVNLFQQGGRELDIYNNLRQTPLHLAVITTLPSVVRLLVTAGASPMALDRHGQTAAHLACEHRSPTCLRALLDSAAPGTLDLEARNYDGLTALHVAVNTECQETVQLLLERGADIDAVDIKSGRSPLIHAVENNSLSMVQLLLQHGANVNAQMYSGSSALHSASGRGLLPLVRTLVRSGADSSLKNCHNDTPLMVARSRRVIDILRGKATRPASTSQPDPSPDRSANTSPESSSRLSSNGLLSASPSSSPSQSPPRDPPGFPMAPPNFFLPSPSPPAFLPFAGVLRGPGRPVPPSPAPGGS
# UniProt P28072, sequence (P28072 whole entry): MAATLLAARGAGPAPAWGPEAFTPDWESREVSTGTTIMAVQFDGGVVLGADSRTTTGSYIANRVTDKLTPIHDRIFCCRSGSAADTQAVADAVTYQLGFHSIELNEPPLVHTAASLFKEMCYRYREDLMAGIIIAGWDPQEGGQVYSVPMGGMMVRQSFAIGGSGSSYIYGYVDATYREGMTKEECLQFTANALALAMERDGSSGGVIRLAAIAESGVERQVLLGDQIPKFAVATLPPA
row,Target,thermal stability z-score
1,IFT122 (UniProt Q9HBG6),0.188
2,RIOK3 (UniProt O14730),0.507
3,ELAVL2 (UniProt Q12926),-0.564
4,BAZ1B (UniProt Q9UIG0),0.21
5,DENND1A (UniProt Q8TEH3),-0.185
6,BCL3 (UniProt P20749),-0.0259
7,ELAVL1 (UniProt Q15717),-0.765
8,SRA1 (UniProt Q9HD15),0.51
9,SNCG (UniProt O76070),0.0455
10,NDUFA8 (UniProt P51970),0.0194
11,MTHFD1L (UniProt Q6UB35),-0.123
12,LAMC1 (UniProt P11047),1.15
13,MID1IP1 (UniProt Q9NPA3),0.151
14,USP28 (UniProt Q96RU2),-0.158
15,AAMP (UniProt Q13685),0.924
16,PIGA (UniProt P37287),0.147
17,LUC7L (UniProt Q9NQ29),-1.2
18,CDC37L1 (UniProt Q7L3B6),0.23
19,PER1 (UniProt O15534),-0.023
20,PACSIN3 (UniProt Q9UKS6),-0.842
21,VRK2 (UniProt Q86Y07),-0.6
22,PPM1G (UniProt O15355),-0.0978
23,PSMD6 (UniProt Q15008),-0.212
24,B3GAT3 (UniProt O94766),0.0971

row,Target,thermal stability z-score
1,ALKBH4 (UniProt Q9NXW9),-0.163
2,SAFB2 (UniProt Q14151),-0.545
3,TPX2 (UniProt Q9ULW0),0.448
4,PDLIM2 (UniProt Q96JY6),-0.0521
5,RCL1 (UniProt Q9Y2P8),2.29
6,CD151 (UniProt P48509),0.131
7,DHX32 (UniProt Q7L7V1),0.629
8,SKA1 (UniProt Q96BD8),-0.0935
9,PRDX5 (UniProt P30044),-0.761
10,UBE2C (UniProt O00762),0.4
11,NAE1 (UniProt Q13564),-0.18
12,TBC1D5 (UniProt Q92609),-0.0438
13,RPLP2 (UniProt P05387),0.225
14,TIMM17A (UniProt Q99595),0.164
15,OXA1L (UniProt Q15070),-0.251
16,SRSF5 (UniProt Q13243),-1.82
17,DHRS3 (UniProt O75911),-0.762
18,ENO3 (UniProt P13929),-0.432
19,ZNF622 (UniProt Q969S3),1.39
20,ARFGEF1 (UniProt Q9Y6D6),-0.154
21,NOC4L (UniProt Q9BVI4),0.214
22,COQ7 (UniProt Q99807),0.227
23,MAF1 (UniProt Q9H063),-0.373
24,RASAL2 (UniProt Q9UJF2),-0.227

row,Target,thermal stability z-score
1,PARD6B (UniProt Q9BYG5),-0.0258
2,CALM1 (UniProt P0DP23),1.29
3,THOP1 (UniProt P52888),-0.915
4,DDX41 (UniProt Q9UJV9),-0.204
5,PEX1 (UniProt O43933),-0.382
6,CLNS1A (UniProt P54105),-1.75
7,ATP6V0A1 (UniProt Q93050),0.705
8,TAX1BP1 (UniProt Q86VP1),0.997
9,CHML (UniProt P26374),-0.161
10,RPP21 (UniProt Q9H633),-0.209
11,TCEB1 (UniProt Q15369),-0.0354
12,HINT3 (UniProt Q9NQE9),-1.57
13,NSFL1C (UniProt Q9UNZ2),1.21
14,ZMIZ2 (UniProt Q8NF64),-0.482
15,NPRL3 (UniProt Q12980),-0.104
16,OGFR (UniProt Q9NZT2),1.72
17,PSMB6 (UniProt P28072),-0.414
18,RNASEH2C (UniProt Q8TDP1),-0.406
19,COMMD10 (UniProt Q9Y6G5),0.307
20,TONSL (UniProt Q96HA7),-0.339
21,CHEK1 (UniProt O14757),-0.526
22,ABCC1 (UniProt P33527),-0.579
23,GPT2 (UniProt Q8TD30),-0.153

# Compound: NC(=O)CCCCC1CCSS1 [lipoamide]
# Test: as above
# Conditions: HeLa; lipoamide concentration 100 µM; arsenate co-treatment: 1 mM arsenate 1 h
# Procedure: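 Cellular thermal proteome profiling in HeLa cells. Cells were treated with 100 µM lipoamide for 1 h, with or without 1 mM arsenate for a further 1 h, then heated to ten temperatures (37-66.3 °C), and soluble protein was quantified by TMT mass spectrometry relative to 0.1% DMSO controls. The thermal stability score (sum of log2 fold changes minus the abundance score) was transformed to a z-score; mean of n = 3 experiments.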
row,Target,thermal stability z-score
1,IFT122 (UniProt Q9HBG6),0.185
2,RIOK3 (UniProt O14730),-0.0448
3,ELAVL2 (UniProt Q12926),-0.19
4,BAZ1B (UniProt Q9UIG0),-0.152
5,DENND1A (UniProt Q8TEH3),-0.118
6,BCL3 (UniProt P20749),-0.234
7,ELAVL1 (UniProt Q15717),-0.0114
8,SRA1 (UniProt Q9HD15),0.911
9,SNCG (UniProt O76070),1.49
10,NDUFA8 (UniProt P51970),-0.418
11,MTHFD1L (UniProt Q6UB35),-0.786
12,LAMC1 (UniProt P11047),-2.97
13,MID1IP1 (UniProt Q9NPA3),-0.135
14,USP28 (UniProt Q96RU2),-0.088
15,AAMP (UniProt Q13685),0.409
16,PIGA (UniProt P37287),0.843
17,LUC7L (UniProt Q9NQ29),-0.243
18,CDC37L1 (UniProt Q7L3B6),-0.275
19,PER1 (UniProt O15534),0.107
20,PACSIN3 (UniProt Q9UKS6),0.00517
21,VRK2 (UniProt Q86Y07),-0.383
22,PPM1G (UniProt O15355),0.2
23,PSMD6 (UniProt Q15008),-0.22
24,B3GAT3 (UniProt O94766),-0.54

row,Target,thermal stability z-score
1,ALKBH4 (UniProt Q9NXW9),0.0364
2,SAFB2 (UniProt Q14151),1.41
3,TPX2 (UniProt Q9ULW0),0.967
4,PDLIM2 (UniProt Q96JY6),-0.719
5,RCL1 (UniProt Q9Y2P8),1.4
6,CD151 (UniProt P48509),1.24
7,DHX32 (UniProt Q7L7V1),-1.73
8,SKA1 (UniProt Q96BD8),-0.047
9,PRDX5 (UniProt P30044),-0.275
10,UBE2C (UniProt O00762),0.263
11,NAE1 (UniProt Q13564),-0.406
12,TBC1D5 (UniProt Q92609),-0.097
13,RPLP2 (UniProt P05387),1.56
14,TIMM17A (UniProt Q99595),0.133
15,OXA1L (UniProt Q15070),-0.709
16,SRSF5 (UniProt Q13243),0.765
17,DHRS3 (UniProt O75911),-0.614
18,ENO3 (UniProt P13929),0.308
19,ZNF622 (UniProt Q969S3),-0.153
20,ARFGEF1 (UniProt Q9Y6D6),-0.0608
21,NOC4L (UniProt Q9BVI4),0.134
22,COQ7 (UniProt Q99807),-0.0244
23,MAF1 (UniProt Q9H063),-0.0772
24,RASAL2 (UniProt Q9UJF2),-0.126

row,Target,thermal stability z-score
1,PARD6B (UniProt Q9BYG5),0.233
2,CALM1 (UniProt P0DP23),3.06
3,THOP1 (UniProt P52888),-0.0659
4,DDX41 (UniProt Q9UJV9),-0.196
5,PEX1 (UniProt O43933),-0.254
6,CLNS1A (UniProt P54105),0.733
7,ATP6V0A1 (UniProt Q93050),0.0809
8,TAX1BP1 (UniProt Q86VP1),-0.152
9,CHML (UniProt P26374),0.57
10,RPP21 (UniProt Q9H633),-0.411
11,TCEB1 (UniProt Q15369),-0.0847
12,HINT3 (UniProt Q9NQE9),0.23
13,NSFL1C (UniProt Q9UNZ2),0.605
14,ZMIZ2 (UniProt Q8NF64),-0.177
15,NPRL3 (UniProt Q12980),-0.0487
16,OGFR (UniProt Q9NZT2),0.681
17,PSMB6 (UniProt P28072),0.174
18,RNASEH2C (UniProt Q8TDP1),-0.258
19,COMMD10 (UniProt Q9Y6G5),0.107
20,TONSL (UniProt Q96HA7),-0.0593
21,CHEK1 (UniProt O14757),0.0611
22,ABCC1 (UniProt P33527),0.473
23,GPT2 (UniProt Q8TD30),0.342

# Same assay, conditions: HeLa; lipoamide concentration 100 µM; arsenate co-treatment: none
row,Target,thermal stability z-score
1,IFT122 (UniProt Q9HBG6),0.177
2,RIOK3 (UniProt O14730),-0.0085
3,ELAVL2 (UniProt Q12926),-0.197
4,BAZ1B (UniProt Q9UIG0),-0.073
5,DENND1A (UniProt Q8TEH3),-0.0262
6,BCL3 (UniProt P20749),0.114
7,ELAVL1 (UniProt Q15717),0.173
8,SRA1 (UniProt Q9HD15),0.998
9,SNCG (UniProt O76070),0.999
10,NDUFA8 (UniProt P51970),-0.772
11,MTHFD1L (UniProt Q6UB35),-0.399
12,LAMC1 (UniProt P11047),-2.6
13,MID1IP1 (UniProt Q9NPA3),0.206
14,USP28 (UniProt Q96RU2),-0.175
15,AAMP (UniProt Q13685),-0.389
16,PIGA (UniProt P37287),0.283
17,LUC7L (UniProt Q9NQ29),-0.433
18,CDC37L1 (UniProt Q7L3B6),-0.0638
19,PER1 (UniProt O15534),-0.119
20,PACSIN3 (UniProt Q9UKS6),0.149
21,VRK2 (UniProt Q86Y07),-0.335
22,PPM1G (UniProt O15355),0.916
23,PSMD6 (UniProt Q15008),0.0409
24,B3GAT3 (UniProt O94766),-0.00376

row,Target,thermal stability z-score
1,ALKBH4 (UniProt Q9NXW9),0.0782
2,SAFB2 (UniProt Q14151),0.112
3,TPX2 (UniProt Q9ULW0),0.322
4,PDLIM2 (UniProt Q96JY6),-0.463
5,RCL1 (UniProt Q9Y2P8),0.192
6,CD151 (UniProt P48509),0.682
7,DHX32 (UniProt Q7L7V1),-1.67
8,SKA1 (UniProt Q96BD8),0.0119
9,PRDX5 (UniProt P30044),0.138
10,UBE2C (UniProt O00762),-0.139
11,NAE1 (UniProt Q13564),-0.333
12,TBC1D5 (UniProt Q92609),-0.749
13,RPLP2 (UniProt P05387),1.34
14,TIMM17A (UniProt Q99595),-0.417
15,OXA1L (UniProt Q15070),-0.369
16,SRSF5 (UniProt Q13243),0.508
17,DHRS3 (UniProt O75911),-0.616
18,ENO3 (UniProt P13929),-0.4
19,ZNF622 (UniProt Q969S3),-0.393
20,ARFGEF1 (UniProt Q9Y6D6),-0.273
21,NOC4L (UniProt Q9BVI4),0.00403
22,COQ7 (UniProt Q99807),0.331
23,MAF1 (UniProt Q9H063),-0.00412
24,RASAL2 (UniProt Q9UJF2),0.0905

row,Target,thermal stability z-score
1,PARD6B (UniProt Q9BYG5),-0.00454
2,CALM1 (UniProt P0DP23),1.53
3,THOP1 (UniProt P52888),-0.212
4,DDX41 (UniProt Q9UJV9),-0.0709
5,PEX1 (UniProt O43933),-0.723
6,CLNS1A (UniProt P54105),0.695
7,ATP6V0A1 (UniProt Q93050),0.332
8,TAX1BP1 (UniProt Q86VP1),0.411
9,CHML (UniProt P26374),0.276
10,RPP21 (UniProt Q9H633),-0.242
11,TCEB1 (UniProt Q15369),-0.122
12,HINT3 (UniProt Q9NQE9),0.339
13,NSFL1C (UniProt Q9UNZ2),0.41
14,ZMIZ2 (UniProt Q8NF64),-0.321
15,NPRL3 (UniProt Q12980),0.0269
16,OGFR (UniProt Q9NZT2),0.943
17,PSMB6 (UniProt P28072),0.262
18,RNASEH2C (UniProt Q8TDP1),-0.493
19,COMMD10 (UniProt Q9Y6G5),0.18
20,TONSL (UniProt Q96HA7),0.0162
21,CHEK1 (UniProt O14757),-0.137
22,ABCC1 (UniProt P33527),0.0236
23,GPT2 (UniProt Q8TD30),0.427
